Measured values as given in ChEMBL document CHEMBL1153541 (J Med Chem, 2009).
Activity calls are given as the source filed them. No cut-off for these calls is given here.

How the values were obtained:
[1] = Selectivity index, ratio of IC50 for rat L6 cells to IC50 for chloroquine-resistant Plasmodium falciparum K1; format: toxicity, cell-based; conditions: read-out: Ratio IC50
[2] = Selectivity index, ratio of IC50 for rat L6 cells to IC50 for blood stream form of Trypanosoma brucei rhodesiense STIB900 trypomastigotes; format: toxicity, cell-based; conditions: read-out: Ratio IC50
Plasmodium falciparum = test: Antiplasmodial activity after 48 hrs against chloroquine-resistant Plasmodium falciparum K1 by [3H]hypoxanthine uptake; format: functional, organism-based
Leishmania donovani = test: Antileishmanial activity against Leishmania donovani MHOM/SD/62/1S-CL2D axenic amastigotes after 72 hrs by tetrazolium dye-based microplate reader method; format: functional, organism-based
[3] = Selectivity index, ratio of IC50 for rat L6 cells to IC50 for Leishmania donovani MHOM/SD/62/1S-CL2D axenic amastigotes; format: toxicity, cell-based; conditions: read-out: Ratio IC50
[4] = tested on: Trypanosoma brucei rhodesiense; test: Antitrypanosomal activity against blood stream form of Trypanosoma brucei rhodesiense STIB900 trypomastigotes after 70 hrs by alamar blue assay; format: functional, organism-based; conditions: STIB900, 70 h
L6 = test: Cytotoxicity against rat L6 cells after 70 hrs by alamar blue assay; format: cell-based; conditions: L6, 70 h
[5] = tested on: Trypanosoma brucei rhodesiense; test: Antitrypanosomal activity against Trypanosoma brucei rhodesiense STIB900 in mouse model of acute trypanosomiasis assessed as increase in survival time at 20 mg/kg administered daily for 4 days; format: functional, organism-based; set-up: dose 20 mg/kg
[6] = tested on: Trypanosoma brucei rhodesiense; test: Ratio of pentamidine IC50 to compound IC50 for blood stream form of Trypanosoma brucei rhodesiense STIB900 trypomastigotes; format: functional
[7] = tested on: Trypanosoma brucei rhodesiense; test: Antitrypanosomal activity against Trypanosoma brucei rhodesiense STIB900 in mouse model of acute trypanosomiasis assessed as induction of cure at 20 mg/kg administered daily for 4 days; format: functional, organism-based; set-up: dose 20 mg/kg

Row | SMILES | selectivity ratio [1] | selectivity ratio [2] | IC50 (Plasmodium falciparum) | IC50 (Leishmania donovani) | selectivity ratio [3] | IC50 [4] | IC50 (L6) | Activity [5] | Ratio IC50 [6] | Activity [7]
1 | c1ccc(OCCCCCCOc2cccc(-c3cc4cc(C5=NCCN5)ccc4o3)c2)cc1 | 51 | 26 | 0.049 µM | 1.9 µM | 1 |  |  |  |  | 
2 | CC(C)NC(=N)c1ccc2oc(-c3cccc(OCCCCCCOc4ccccc4)c3)cc2c1 | 40 | 6 | 0.183 µM | 7 µM | 1 | 1.16 µM | 7.4 µM |  |  | 
3 | N=C(N)c1ccc(OCCCOc2ccc(-c3cc4ccc(C(=N)N)cc4o3)cc2)cc1 |  |  |  | 0.78 µM |  | 0.025 µM | 8.6 µM | Active | 8 | inactive
